Values of other authors in patent publication US20030157171A1 (priority 2003, published 2003).

Row | water solubility (in words) | water solubility at pH values below 7.0 (pH below 7.0) | Structure (SMILES)
1 | poorly water soluble |  | COc1ccc2c(c1)c(CC(=O)O)c(C)n2C(=O)c1ccc(Cl)cc1 [Indomethacin]
2 |  | low | C[C@H](CCC(=O)O)[C@H]1CC[C@H]2[C@@H]3[C@@H](O)C[C@@H]4C[C@H](O)CC[C@]4(C)[C@H]3CC[C@]12C [Ursodeoxycholic Acid]
